ChEMBL document CHEMBL1201862, “PubChem BioAssay data set” (2004)
Calls of active or inactive are those of the source.

Experiments:
[1] = OVCAR8 cell viability loss – plate reader, dry powder samples, PAX8 project, dose response (AID 743197); assay type: functional, cell-based; conditions: OVCAR-8
[2] = general cell-killing toxicity readout – plate reader, dry powder samples, cytotoxicity control for PAX8 inhibitor project, dose response (AID 743021); assay type: functional, cell-based
[3] = toxicity toward immortalized ovarian surface epithelium – cell-based, plate reader, dry powder samples, cytotoxicity control for PAX8 inhibitor project, dose response (AID 743045); assay type: functional
[4] = toxicity to human hepatoma HepG2 cells – cell-based, cherry-picked samples, cytotoxicity control, dose response (AID 1159577); assay type: functional
[5] = IGROV1 cell killing – plate reader, dry powder samples, PAX8 inhibitor project, dose response (AID 743043); assay type: functional, cell-based; conditions: IGROV-1
[6] = P. falciparum Dd2 growth inhibitors, dose response, SYBR Green, cherry-picked samples (AID 1159567); assay type: functional, cell-based
[7] = molecular target: Paired box protein Pax-8 (Homo sapiens, UniProt Q06710); assay: PAX8 transcriptional activity inhibition in RMG-I – RMG-I cells, luciferase, cherry-pick, dose response (AID 687027); assay type: functional, cell-based;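 further: luciferase reporter driven by Pax8 target thyroperoxidase promoter measured by SteadyGlo luminescence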
[8] = OVCAR-3 cell viability loss – plate reader, dry powder samples, PAX8 inhibitor project, dose response (AID 743044); assay type: functional, cell-based
[9] = reduced cellular PGC1a acetyl-lysine signal – cell-based, cherry-picked samples, dose response (AID 720514); assay type: functional;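 further: potency may reflect raised or lowered acetylation signal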
[10] = test system: HEK293; assay: viability loss in HEK293T cells – cell-based, ATP luminescence, cherry-pick samples, cytotoxicity control, dose response (AID 687005); assay type: functional; conditions: Homo sapiens;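 further: cells exposed to compound for 48 hours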
[11] = HEK293 Cytotoxicity Assay Measured in Cell-Based System Using Plate Reader - 7071-01_Inhibitor_Dose_CherryPick_Activity_Set2.; assay type: functional
[12] = test system: HeLa; assay: viability loss in HeLa cells – cell-based, ATP luminescence, cherry-pick samples, cytotoxicity control, dose response (AID 687004); assay type: functional; conditions: Homo sapiens
[13] = LMP1-induced NF-kB luciferase signal inhibition – cell-based, EBV LMP1, dry powder, set 2, dose response (AID 624361); assay type: functional
[14] = TNFa-induced NF-kB reporter signal decrease – HEK293 LMP1 reporter cells, dry powder, set 2, selectivity assay for EBV LMP1 NF-kB inhibitor project, dose response (AID 624369); assay type: functional
[15] = test system: A549; assay: viability loss in A549 cells – cell-based, plate reader, cherry-pick samples, cytotoxicity control, dose response (AID 687028); assay type: functional; conditions: Homo sapiens
[16] = blockers of FN fibrillogenesis by fibroblasts – AH1F cells, Alexa488-FN fluorescence, cherry-picks, dose response (AID 1035475); assay type: functional, cell-based
[17] = viability loss in HEK293 kidney cells – cell-based, cherry-picks, set 5, cytotoxicity control, dose response (AID 1053117); assay type: functional
[18] = viability loss in HepG2 hepatoma cells – cell-based, cherry-picks, set 5, cytotoxicity control, dose response (AID 1053118); assay type: functional
[19] = general mammalian cell viability loss – inhibitor set, cherry-pick, set 2, cytotoxicity control for miR-122 modulator project, dose response (AID 720697); assay type: functional, cell-based
[20] = molecular target: Protein Wnt-3a (Mus musculus, UniProt P27467); assay: SAR analysis of small molecule antagonists of Gli-SUFU in a Wnt3a luminescent reporter assay.; assay type: functional
Chain of Protein Wnt-3a (P27467 whole entry): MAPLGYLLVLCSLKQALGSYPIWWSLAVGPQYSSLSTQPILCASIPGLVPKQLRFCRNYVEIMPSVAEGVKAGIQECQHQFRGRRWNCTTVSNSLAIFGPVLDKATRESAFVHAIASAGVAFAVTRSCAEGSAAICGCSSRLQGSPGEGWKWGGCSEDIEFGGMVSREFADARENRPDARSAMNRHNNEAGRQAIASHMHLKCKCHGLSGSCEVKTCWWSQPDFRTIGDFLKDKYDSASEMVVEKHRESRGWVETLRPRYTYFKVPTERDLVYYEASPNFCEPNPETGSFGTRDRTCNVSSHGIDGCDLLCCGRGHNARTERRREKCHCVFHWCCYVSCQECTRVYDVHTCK

Chain of Paired box protein Pax-8 (Q06710 whole entry): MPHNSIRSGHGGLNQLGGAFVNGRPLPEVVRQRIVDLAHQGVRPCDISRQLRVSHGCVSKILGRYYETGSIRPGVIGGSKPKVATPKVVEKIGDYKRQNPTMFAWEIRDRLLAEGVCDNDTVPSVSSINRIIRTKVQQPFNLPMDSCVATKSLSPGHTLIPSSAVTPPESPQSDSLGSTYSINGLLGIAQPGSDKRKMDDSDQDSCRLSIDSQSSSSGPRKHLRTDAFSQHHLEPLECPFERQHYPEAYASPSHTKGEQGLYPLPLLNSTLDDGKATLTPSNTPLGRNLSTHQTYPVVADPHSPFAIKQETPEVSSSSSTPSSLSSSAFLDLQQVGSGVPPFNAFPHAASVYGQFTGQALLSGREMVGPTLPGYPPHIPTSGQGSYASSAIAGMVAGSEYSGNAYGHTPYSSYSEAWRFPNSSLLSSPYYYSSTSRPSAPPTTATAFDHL

## Cc1cccc(-c2ccc([C@H]3[C@@H]4CN(C(=O)Nc5ccc(C(F)(F)F)cc5)C[C@H]3N4)cc2)c1
[1]
  AC50: 25.6 µM (active)
[2]
  AC50: 22.9 µM (active)
[3]
  AC50: 17 µM (active)
[4]
  AC50: 9.26 µM (active)
[5]
  AC50: 33.2 µM (active)
[6]
  AC50: 3.28 µM (active)
[7]
  AC50: 8.8 µM (active)
[8]
  AC50: 18.8 µM (active)
[9]
  AC50: 4.51 µM (active)

## C[C@@H]1CN([C@@H](C)CO)S(=O)(=O)c2ccc(-c3ccccc3)cc2O[C@H]1CN(C)C(=O)C1CCCCC1
[10]
  AC50: 15.4 µM (active)
[11]
  AC50: 15.4 µM (active)
[12]
  AC50: > 52 µM (inactive)

## Cc1cc(C(=O)Nc2ccc3c(c2)C(=O)N(C)[C@H]2CC[C@H](CC(=O)NCc4ccc(-c5ccccc5)cc4)O[C@H]2CO3)no1
[13]
  AbsAC35: 37.95 µM
[14]
  AbsAC35: 62.14 µM

## C[C@H](CO)N1C[C@H](C)[C@@H](CN(C)C(=O)Nc2ccc(C(F)(F)F)cc2)OCCCC[C@H](C)Oc2ccc(NC(=O)C3CCCCC3)cc2C1=O
[15]
  AC50: 30.5 µM (active)

## CN1c2ccc(-c3ccccc3)cc2[C@H]2[C@H](CCN2C(=O)CN2CCOCC2)[C@@H]1CO
[16]
  AC50: > 70 µM (inactive)
[17]
  AC50: > 52 µM (inactive)

## CO[C@@H]1CN(C)C(=O)c2ccc(NC(=O)c3ccc(-c4ccccc4)cc3)cc2OC[C@@H](C)NC[C@@H]1C
[18]
  AC50: > 52 µM (inactive)
[4]
  AC50: 11.9 µM (active)
[6]
  AC50: 3.9 µM (active)

## CN(C)C(=O)C[C@@H]1CC[C@@H]2[C@@H](COc3ccc(NC(=O)C4CC4)cc3C(=O)N2C)O1
[19]
  AC50: 9.22 µM (active)

## CN(C)c1cc(NC(=O)c2ccccc2F)ncn1
[20]
  IC50: > 21.8 µM (inactive)
